Patent US9321764B2, “Dihydro-pyrrolopyridinone inhibitors” (AbbVie Inc., priority 2013, dated 2016)

Assays:
BRD4 (BDI_K57-E168) = target: T1, BRD4 (BDI_K57-E168) (Homo sapiens, UniProt O60885); assay: TR-FRET bromodomain binding assay, first bromodomain of BRD4; conditions: His-tagged BD1, 100 nM Alexa647 probe; TR-FRET protocol A-E given per row
T1 construct: BD1: amino acids K57-E168; made in house
Outline: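 Ki values come from IC50s (4-parameter logistic) corrected for probe Kd and concentration, normalised to no-compound and 1 μM unlabelled probe controls. Probe displacement by TR-FRET used 8 nM BD1 (K57-E168), 100 nM Alexa647 probe, 1 nM Eu-anti-His, 20 mM phosphate pH 6.0, 2% DMSO, 1 h, room temperature.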

BRD4 (BDII_E352-M457) = target: T2, BRD4 (BDII_E352-M457) (Homo sapiens, UniProt O60885); assay: TR-FRET bromodomain binding assay, second bromodomain of BRD4; conditions: His-tagged BD2, 30 nM Alexa647 probe; TR-FRET protocol A-E given per row
T2 construct: proliferation; Protocol; made in house
Outline: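 His-tagged BRD4 BD2 ([…]) competed against an Alexa647-labelled BET-inhibitor probe in TR-FRET. Buffer was 20 mM sodium phosphate pH 6.0, 50 mM NaCl, 1 mM EDTA, 0.01% Triton X-100, 1 mM DTT, with method D DMSO series of 2.5 mM–800 nM (stock range). IC50 from 4-parameter fit, Ki from probe Kd and concentration.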

[1] = system: breast cancer cell line MX-1; assay: MX-1 cell line proliferation assay; type: cell-based; conditions: Homo sapiens, MX1, 72 h, MX-1 cells, 3-day proliferation assay, Cell Titer Glo; read-out: Cellular proliferation EC50
Outline: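 Final compound concentrations spanned 0.0001 to 3 μM, added to 5000 cells/well plated the previous night in RPMI 1640 plus 10% FBS at 37 °C.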

SMILES | Ki (BRD4 (BDI_K57-E168)) [nM] | Ki (BRD4 (BDII_E352-M457)) [nM] | EC50 [1] [nM]
Cn1cc(-c2cc(CNS(=O)(=O)CC(F)(F)F)ccc2Oc2ccc(F)cc2F)c2cc[nH]c(=O)c21 [Example 135, N-[4-(2,4-difluorophenoxy)-3-(1-methyl-7-oxo-6,7-dihydro-1H-pyrrolo[2,3-c]pyridin-3-yl)benzyl]-2,2,2-trifluoroethanesulfonamide] | 27 | 109 | 388
Cn1cc(-c2cc(CNS(=O)(=O)C3CCCC3)ccc2Oc2ccc(F)cc2F)c2cc[nH]c(=O)c21 [Example 137, N-[4-(2,4-difluorophenoxy)-3-(1-methyl-7-oxo-6,7-dihydro-1H-pyrrolo[2,3-c]pyridin-3-yl)benzyl]cyclopentanesulfonamide] | 106 | 374 | 872
Cc1noc(C)c1S(=O)(=O)NCc1ccc(Oc2ccc(F)cc2F)c(-c2cn(C)c3c(=O)[nH]ccc23)c1 [Example 140, N-[4-(2,4-difluorophenoxy)-3-(1-methyl-7-oxo-6,7-dihydro-1H-pyrrolo[2,3-c]pyridin-3-yl)benzyl]-3,5-dimethyl-1,2-oxazole-4-sulfonamide] | 490 | 817 | 1820
Cc1cnc(C(=O)Nc2ccc(Oc3ccc(F)cc3F)c(-c3cn(C)c4c(=O)[nH]ccc34)c2)cn1 [Example 151, N-[4-(2,4-difluorophenoxy)-3-(1-methyl-7-oxo-6,7-dihydro-1H-pyrrolo[2,3-c]pyridin-3-yl)phenyl]-5-methylpyrazine-2-carboxamide] | 16.1 | 32 | 200
Cn1cc(-c2cc(NC(=O)Cc3cccc(Oc4ccccc4)c3)ccc2Oc2ccc(F)cc2F)c2cc[nH]c(=O)c21 [Example 154, N-[4-(2,4-difluorophenoxy)-3-(1-methyl-7-oxo-6,7-dihydro-1H-pyrrolo[2,3-c]pyridin-3-yl)phenyl]-2-(3-phenoxyphenyl)acetamide] | 1760 | 828 | 1590
CC(=O)Nc1ccc(C(=O)Nc2ccc(Oc3ccc(F)cc3F)c(-c3cn(C)c4c(=O)[nH]ccc34)c2)cc1 [Example 155, 4-(acetylamino)-N-[4-(2,4-difluorophenoxy)-3-(1-methyl-7-oxo-6,7-dihydro-1H-pyrrolo[2,3-c]pyridin-3-yl)phenyl]benzamide] | 27.8 | 163 | 310
Cc1cccnc1CNc1ccc(Oc2ccc(F)cc2F)c(-c2cn(C)c3c(=O)[nH]ccc23)c1 [Example 169, 3-[2-(2,4-difluorophenoxy)-5-{[(3-methylpyridin-2-yl)methyl]amino}phenyl]-1-methyl-1,6-dihydro-7H-pyrrolo[2,3-c]pyridin-7-one] | 26.5 | 107 | 132
Cn1cc(-c2cc(NCc3ccc(OCc4ccccc4)cc3)ccc2Oc2ccc(F)cc2F)c2cc[nH]c(=O)c21 [Example 170, 3-[5-{[4-(benzyloxy)benzyl]amino}-2-(2,4-difluorophenoxy)phenyl]-1-methyl-1,6-dihydro-7H-pyrrolo[2,3-c]pyridin-7-one] | 216 | 1100 | 1020
Cc1nn(-c2ccccc2)c(Cl)c1CNc1ccc(Oc2ccc(F)cc2F)c(-c2cn(C)c3c(=O)[nH]ccc23)c1 [Example 171, 3-[5-{[(5-chloro-3-methyl-1-phenyl-1H-pyrazol-4-yl)methyl]amino}-2-(2,4-difluorophenoxy)phenyl]-1-methyl-1,6-dihydro-7H-pyrrolo[2,3-c]pyridin-7-one] | 176 | 384 | 198
Cn1cc(-c2cc(NCc3cn4c(n3)CCC4)ccc2Oc2ccc(F)cc2F)c2cc[nH]c(=O)c21 [Example 176, 3-{2-(2,4-difluorophenoxy)-5-[(6,7-dihydro-5H-pyrrolo[1,2-a]imidazol-2-ylmethyl)amino]phenyl}-1-methyl-1,6-dihydro-7H-pyrrolo[2,3-c]pyridin-7-one] | 42.3 | 101 | 289
Cn1cc(-c2cc(NS(=O)(=O)Cc3ccccc3)ccc2Oc2ccc(F)cc2F)c2cc[nH]c(=O)c21 [Example 180, N-[4-(2,4-difluorophenoxy)-3-(1-methyl-7-oxo-6,7-dihydro-1H-pyrrolo[2,3-c]pyridin-3-yl)phenyl]-1-phenylmethanesulfonamide] | 34.9 | 59.3 | > 1000
Cn1cc(-c2cc(NS(=O)(=O)Cc3cc(F)ccc3Cl)ccc2Oc2ccc(F)cc2F)c2cc[nH]c(=O)c21 [Example 181, 1-(2-chloro-5-fluorophenyl)-N-[4-(2,4-difluorophenoxy)-3-(1-methyl-7-oxo-6,7-dihydro-1H-pyrrolo[2,3-c]pyridin-3-yl)phenyl]methanesulfonamide] | 65.8 | 128 | > 1000
CCS(=O)(=O)Nc1ccc(Oc2ccc(F)cc2F)c(-c2cn(C)c3c(=O)[nH]c(C4CCNCC4)cc23)c1 [Example 183, N-{4-(2,4-difluorophenoxy)-3-[1-methyl-7-oxo-5-(piperidin-4-yl)-6,7-dihydro-1H-pyrrolo[2,3-c]pyridin-3-yl]phenyl}ethanesulfonamide] | 2.63 | 13.4 | 356

More lines, now with the values ahead:

Ki (BRD4 (BDI_K57-E168)) [nM] | Ki (BRD4 (BDII_E352-M457)) [nM] | EC50 [1] [nM] | SMILES
249 | 1240 | 658 | Cc1ccc(CS(=O)(=O)NCc2ccc(Oc3ccc(F)cc3F)c(-c3cn(C)c4c(=O)[nH]ccc34)c2)cc1 [Example 132, N-[4-(2,4-difluorophenoxy)-3-(1-methyl-7-oxo-6,7-dihydro-1H-pyrrolo[2,3-c]pyridin-3-yl)benzyl]-1-(4-methylphenyl)methanesulfonamide]
49 | 2680 | 1680 | Cn1cc(-c2cc(CNS(=O)(=O)Cc3ccc(C(F)(F)F)cc3)ccc2Oc2ccc(F)cc2F)c2cc[nH]c(=O)c21 [Example 133, N-[4-(2,4-difluorophenoxy)-3-(1-methyl-7-oxo-6,7-dihydro-1H-pyrrolo[2,3-c]pyridin-3-yl)benzyl]-1-[4-(trifluoromethyl)phenyl]methanesulfonamide]
103 | 518 | 456 | Cn1cc(-c2cc(CNS(=O)(=O)Cc3ccc(C#N)cc3)ccc2Oc2ccc(F)cc2F)c2cc[nH]c(=O)c21 [Example 134, 1-(4-cyanophenyl)-N-[4-(2,4-difluorophenoxy)-3-(1-methyl-7-oxo-6,7-dihydro-1H-pyrrolo[2,3-c]pyridin-3-yl)benzyl]methanesulfonamide]
129 | 525 | > 3000 | Cc1oncc1S(=O)(=O)NCc1ccc(Oc2ccc(F)cc2F)c(-c2cn(C)c3c(=O)[nH]ccc23)c1 [Example 139, N-[4-(2,4-difluorophenoxy)-3-(1-methyl-7-oxo-6,7-dihydro-1H-pyrrolo[2,3-c]pyridin-3-yl)benzyl]-5-methyl-1,2-oxazole-4-sulfonamide]
64 | 495 | 980 | Cn1cc(-c2cc(CNS(=O)(=O)c3ccccc3)ccc2Oc2ccc(F)cc2F)c2cc[nH]c(=O)c21 [Example 141, N-[4-(2,4-difluorophenoxy)-3-(1-methyl-7-oxo-6,7-dihydro-1H-pyrrolo[2,3-c]pyridin-3-yl)benzyl]benzenesulfonamide]
8.2 | 107 | 73.1 | Cn1cc(-c2cc(S(=O)(=O)N3CCCC3)ccc2O[C@H]2CC[C@H](N(C)C)CC2)c2cc[nH]c(=O)c21 [Example 144, 3-[2-{[trans-4-(dimethylamino)cyclohexyl]oxy}-5-(pyrrolidin-1-ylsulfonyl)phenyl]-1-methyl-1,6-dihydro-7H-pyrrolo[2,3-c]pyridin-7-one]
65.1 | 150 | 170 | Cn1cc(-c2cc(NC(=O)c3cc(Cl)ccc3Cl)ccc2Oc2ccc(F)cc2F)c2cc[nH]c(=O)c21 [Example 148, 2,5-dichloro-N-[4-(2,4-difluorophenoxy)-3-(1-methyl-7-oxo-6,7-dihydro-1H-pyrrolo[2,3-c]pyridin-3-yl)phenyl]benzamide]
32.8 | 156 | 338 | Cn1cc(-c2cc(NCc3ccc(C#N)cc3)ccc2Oc2ccc(F)cc2F)c2cc[nH]c(=O)c21 [Example 167, 4-({[4-(2,4-difluorophenoxy)-3-(1-methyl-7-oxo-6,7-dihydro-1H-pyrrolo[2,3-c]pyridin-3-yl)phenyl]amino}methyl)benzonitrile]
133 | 248 | > 3000 | COc1cccc(CNc2ccc(Oc3ccc(F)cc3F)c(-c3cn(C)c4c(=O)[nH]ccc34)c2)c1OCc1ccccc1 [Example 177, 3-[5-{[2-(benzyloxy)-3-methoxybenzyl]amino}-2-(2,4-difluorophenoxy)phenyl]-1-methyl-1,6-dihydro-7H-pyrrolo[2,3-c]pyridin-7-one]
30.8 | 239 | 233 | Cn1cc(-c2cc(NCc3ccccc3C#N)ccc2Oc2ccc(F)cc2F)c2cc[nH]c(=O)c21 [Example 178, 2-({[4-(2,4-difluorophenoxy)-3-(1-methyl-7-oxo-6,7-dihydro-1H-pyrrolo[2,3-c]pyridin-3-yl)phenyl]amino}methyl)benzonitrile]
